Molecules are shown by their SMILES.

Broadly, the logP is a log measure of how a compound divides between an organic and an aqueous phase. Lower therefore signals lower lipophilicity. What is called chromatographic logP is lipophilicity estimated from chromatographic retention. The low end stands for lower lipophilicity, the high end for higher lipophilicity.

The first series can be described thus: logP by HPLC on reverse-phase column (EEC Directive 79/831 Annex V.A8). Format: physicochemical. Particulars: HPLC, C18 reverse phase, 43° C., acidic range pH 2.7, calibration with alkan-2-ones. The method, then:
The logP values reported in the above Tables and Preparation Examples were determined according to EEC Directive 79/831 Annex V.A8 by HPLC (High Performance Liquid Chromatography) on a reverse-phase column (C18). Temperature 43° C.
For the compound `CS(=O)(=O)c1ccc2[nH]c(C(=O)NC(c3cccc(C(F)(F)F)c3)C(F)(F)F)cc2c1` (stereo not drawn) [Ic-9], the lipophilicity (logP) result is on record as “HPLC-MS: logP = 2.92; mass”.
On the same count and under the same terms, the result for `O=C(NC1CC1)c1cc2cc(C(=O)NC(c3cccc(C(F)(F)F)c3)C(F)(F)F)n(Cc3ccccc3)c2cc1Cl` (racemic) [Ic-28] reads “HPLC-MS: logP = 4.25; mass”.
Still for that read-out and setting: the result for `ON=C(c1cc(F)cc(C(F)(F)F)c1)C(F)(F)F` (racemic) [2,2,2-Trifluoro-1-[3-fluoro-5-(trifluoromethyl)phenyl]ethanone oxime] reads 3.21.

Staying with this series, now noted: HPLC-MS.
In the case of `N#Cc1cnn(-c2ccc(/C=C/C(=O)NC(c3ccc(F)c(Cl)c3)C(F)(F)F)cc2Cl)c1` (racemic) [Ia-202], the logP result is “HPLC-MS: logP = 3.77; mass”.
Regarding `O=C(/C=C/c1ccc(C(=O)NCc2ncccn2)c(Br)c1)NC(c1cccc(C(F)(F)F)c1)C(F)(F)F` (stereo not drawn) [Ia-133], the logP entry is given as “HPLC-MS: logP = 2.93; mass”.
Still for that read-out and setting: the result for `O=C(/C=C/c1ccc(C(=O)Nc2cccnc2)c(C(F)(F)F)c1)NC(c1cccc(C(F)(F)F)c1)C(F)(F)F` (stereo not drawn) [Ia-53] reads “HPLC-MS: logP = 2.76; mass”; that for `O=C(/C=C/c1ccc(C(=O)NC2CC2)c(C(F)(F)F)c1)NC(c1c(F)cccc1F)C(F)(F)F` (stereo not drawn) [Ia-38], “HPLC-MS: logP = 2.89; mass”; that for `Cc1cccnc1NC(=O)c1ccc(/C=C/C(=O)NC(c2cccc(C(F)(F)F)c2)C(F)(F)F)cc1C(F)(F)F` (stereo not drawn) [Ia-255], “HPLC-MS: logP = 3.19; mass”.
On the same count and under the same terms, the result for `O=C(/C=C/c1ccc(NC(=O)CC(F)(F)F)cc1)NC(c1cccc(C(F)(F)F)c1)C(F)(F)F` (stereo not drawn) [Ia-6] reads “HPLC-MS: logP = 3.43; mass”.
Same read-out and setting: to `O=C(/C=C/c1ccc(CNC(=O)C2CC2)c(C(F)(F)F)c1)NC(c1cccc(C(F)(F)F)c1)C(F)(F)F` (stereo not drawn) [Ia-240] belongs “HPLC-MS: logP = 3.76; mass”; to `O=C(/C=C/c1ccc(C(=O)Nc2cnccn2)c(Cl)c1)NC(c1cccc(C(F)(F)F)c1)C(F)(F)F` (racemic) [Ia-216], “HPLC-MS: logP = 3.31; mass”; to `CC(C)C(C#N)NC(=O)c1ccc(/C=C/C(=O)NC(c2cccc(C(F)(F)F)c2)C(F)(F)F)cc1Cl` (stereo not drawn) [Ia-182], “HPLC-MS: logP = 3.68; mass”.
For `O=C(/C=C/c1ccc(C(=O)NCc2nccs2)c(Br)c1)NC(c1cccc(C(F)(F)F)c1)C(F)(F)F` (stereo not drawn) [Ia-177], the logP result is listed as “HPLC-MS: logP = 3.14; mass”.
Still for that read-out and setting: the result for `Cn1nccc1NC(=O)c1ccc(/C=C/C(=O)NC(c2cccc(C(F)(F)F)c2)C(F)(F)F)cc1Cl` (racemic) [Ia-188] reads “HPLC-MS: logP = 2.73; mass”; that for `O=C(/C=C/c1ccc(C(=O)NCc2ccc(F)cn2)c(Cl)c1)NC(c1cccc(C(F)(F)F)c1)C(F)(F)F` (stereo not drawn) [Ia-236], “HPLC-MS: logP = 3.15; mass”.
On the same count and under the same terms, to `O=C(/C=C/c1ccc(C(=O)NC2CC2)c(C(F)(F)F)c1)NC(c1cccc(F)c1)C(F)(F)F` (stereo not drawn) [Ia-230] belongs “HPLC-MS: logP = 2.95; mass”; to `O=C(/C=C/c1ccc(C(=O)Nc2ccc(Cl)nn2)c(Cl)c1)NC(c1cccc(C(F)(F)F)c1)C(F)(F)F` (stereo not drawn) [Ia-228], “HPLC-MS: logP = 3.7; mass”; to `O=C(/C=C/c1ccc(C(=O)Nc2cccc(Cl)n2)c(C(F)(F)F)c1)NC(c1cccc(C(F)(F)F)c1)C(F)(F)F` (stereo not drawn) [Ia-120], “HPLC-MS: logP = 4.33; mass”.
On the same count and under the same terms, to `N#Cc1cc(/C=C/C(=O)NC(c2cc(Cl)cc(Cl)c2)C(F)(F)F)ccc1-n1cncn1` (stereo not drawn) [Ia-16] belongs “HPLC-MS: logP = 3.33; mass”; to `Cn1nccc1CNC(=O)c1ccc(/C=C/C(=O)NC(c2cccc(C(F)(F)F)c2)C(F)(F)F)cc1Cl` (racemic) [Ia-189], “HPLC-MS: logP = 2.93; mass”.
`O=C(/C=C/c1ccc(-n2cncn2)c([N+](=O)[O-])c1)NC(c1cccc(C(F)(F)F)c1)C(F)(F)F` (stereo not drawn) [Ia-9]: the logP entry is listed as “HPLC-MS: logP = 3.11; mass”.
Still for that read-out and setting: the result for `N#Cc1cc(/C=C/C(=O)NC(c2ccc(C(F)(F)F)cc2)C(F)(F)F)ccc1-n1cncn1` (stereo not drawn) [Ia-14] reads “HPLC-MS: logP = 3.08; mass”; that for `CS(=O)(=O)c1cccc(C(NC(=O)/C=C/c2ccc(C(=O)NC3CC3)c(C(F)(F)F)c2)C(F)(F)F)c1` (stereo not drawn) [Ia-243], “HPLC MS: logP = 2.31; mass”.
On the same count and under the same terms, the result for `Cc1cc(/C=C/C(=O)NC(c2cccc(C(F)(F)F)c2)C(F)(F)F)ccc1C(=O)N(C)C1CC1` (stereo not drawn) [Ia-116] reads “HPLC-MS: logP = 3.37 mass”.
Same read-out and setting: the result for `O=C(/C=C/c1ccc(S(=O)(=O)NC2CC2)cc1)NC(c1cccc(C(F)(F)F)c1)C(F)(F)F` (stereo not drawn) [Ia-117] reads “HPLC-MS: logP = 3.33; mass”.

The same series, now with this note: HPLC-MS; HPLC on reverse-phase column.
With `O=C(/C=C/c1ccc(C(=O)NCC(=O)NCC(F)(F)F)c(C(F)(F)F)c1)NC(c1cccc(C(F)(F)F)c1)C(F)(F)F` (stereo not drawn) [Ia-262], the logP entry is “HPLC-MS: logP = 3.11; mass”.
Same read-out and setting: to `O=C(/C=C/c1ccc(C(=O)NC2CC2)c(C(F)(F)F)c1)NC(c1cc(Cl)c(Cl)c(Cl)c1)C(F)(F)F` (stereo not drawn) [Ia-283] belongs “HPLC-MS: logP = 4.1; mass”; to `O=C(/C=C/c1ccc(CNc2cc(Cl)ccn2)cc1)NC(c1cccc(C(F)(F)F)c1)C(F)(F)F` (stereo not drawn) [Ia-265], “HPLC-MS: logP = 3.15; mass”.

The series is the same for the next values; noted with them: pH 2.7.
In turn, `O=C(O)/C=C/c1ccc(C(=O)NCc2ccccc2)c(C(F)(F)F)c1` [(2E)-3-[4-(Phenylmethyl)carbamoyl)-3-trifluoromethylphenyl]acrylic acid] returned a logP of 2.12.

The same series, now with this note: reverse-phase C18 HPLC column, pH 2.7, HPLC, C18 reverse phase, 43° C., acidic range pH 2.7, calibration with alkan-2-ones.
The compound `O=C(O)c1ccc2cc(C(=O)NC(c3cccc(C(F)(F)F)c3)C(F)(F)F)oc2c1` (stereo not drawn) [2-({2,2,2-Trifluoro-1-[3-(trifluoromethyl)phenyl]ethyl}carbamoyl)-1-benzofuran-6-carboxylic acid] registered a chromatographic logP of 3.1.
As to `CCOC(=O)c1cc2ccc(C(=O)OC(C)(C)C)cc2o1` [6-tert-Butyl 2-ethyl 1-benzofuran-2,6-dicarboxylate], the chromatographic logP was 4.32.
Same read-out and setting: to `O=C(Nc1ccccn1)c1ccc(Br)cc1C(F)(F)F` [4-Bromo-N-(pyridin-2-yl)-2-(trifluoromethyl)benzamide] belongs 2.57.
The compound `CC(C)(C)OC(=O)NC1CCc2cc(/C=C/C(=O)O)ccc21` (stereo not drawn) [(2E)-3-{1-[(tert-Butoxycarbonyl)amino]-2,3-dihydro-1H-inden-5-yl}acrylic acid] yielded a chromatographic logP of 2.47.
On the same count and under the same terms, the result for `O=C(O)/C=C/c1cc(C(F)(F)F)c(C(=O)NC2CC2)cn1` [(2E)-3-[5-(Cyclopropylcarbamoyl)-4-(trifluoromethyl)pyridin-2-yl]acrylic acid] reads 1.26.
`O=C(NC1CC1)c1ccc(I)cc1Cl` [2-Chloro-N-cyclopropyl-4-iodobenzamide] gave a chromatographic logP of 2.13.
Same read-out and setting: the result for `CCOC(=O)c1cc2cc(C(=O)NC(c3cccc(C(F)(F)F)c3)C(F)(F)F)[nH]c2cc1Cl` (stereo not drawn) [Ethyl 6-chloro-2-({2,2,2-trifluoro-1-[3-(trifluoromethyl)phenyl]ethyl}carbamoyl)-1H-indole-5-carboxylate] reads 4.12.
Still for that read-out and setting: to `Cc1cc(/C=C/C(=O)O)ccc1C(=O)NC1CC1` [(2E)-3-[4-(Cyclopropylcarbamoyl)-3-methylphenyl]acrylic acid] belongs 1.14.
In the case of `CCOC(=O)c1cc(I)c(N)cc1Cl` [Ethyl 4-amino-2-chloro-5-iodobenzoate], the chromatographic logP stood at 2.95.
Turning to `O=C(C#Cc1ccc(C(=O)NC2CC2)c(Cl)c1)NC(c1cccc(C(F)(F)F)c1)C(F)(F)F` (stereo not drawn) [2-Chloro-N-cyclopropyl-4-[3-oxo-3-({2,2,2-trifluoro-1-[3-(trifluoromethyl)phenyl]ethyl}amino)prop-1-yn-1-yl]benzamide], the chromatographic logP was 3.34.
On the same count and under the same terms, the result for `O=C(/C=C/c1ccc(C(=O)O)c(C(F)(F)F)c1)NC(c1cccc(C(F)(F)F)c1)C(F)(F)F` (stereo not drawn) [4-[(1E)-3-Oxo-3-({2,2,2-trifluoro-1-[3-(trifluoromethyl)phenyl]ethyl}amino)prop-1-en-1-yl]-2-(trifluoromethyl)benzoic acid] reads 3.29; that for `O=C(/C=C/c1ccc(C(=O)O)c(Br)c1)NC(c1cccc(C(F)(F)F)c1)C(F)(F)F` (stereo not drawn) [2-Bromo-4-[(1E)-3-oxo-3-({2,2,2-trifluoro-1-[3-(trifluoromethyl)phenyl]ethyl}amino)prop-1-en-1-yl]benzoic acid], 3.15; that for `NC(c1cc(F)cc(C(F)(F)F)c1)C(F)(F)F` (stereo not drawn) [α,3-Bis(trifluoromethyl)-5-fluorobenzenemethanamine], 2.51.
Compound `CC(C)(C)OC(=O)NC1CCc2cc(/C=C/C(=O)NC(c3cccc(C(F)(F)F)c3)C(F)(F)F)ccc21` (stereo not drawn) [tert-Butyl {5-[(1E)-3-oxo-3-({2,2,2-trifluoro-1-[3-(trifluoromethyl)phenyl]ethyl}amino)prop-1-en-1-yl]-2,3-dihydro-1H-inden-1-yl}carbamate] returned a chromatographic logP of 4.44.
Still for that read-out and setting: to `O=C(/C=C/c1cccc([N+](=O)[O-])c1)NC(c1cccc(C(F)(F)F)c1)C(F)(F)F` (stereo not drawn) [(2E)-3-(3-Nitrophenyl)-N-{2,2,2-trifluoro-1-[3-(trifluoromethyl)phenyl]ethyl}acrylamide] belongs 3.81; to `ON=C(c1cc(F)cc(C(F)(F)F)c1)C(F)(F)F` (racemic) [2,2,2-Trifluoro-1-[3-fluoro-5-(trifluoromethyl)phenyl]ethanone oxime], 3.17.
Same read-out and setting: the result for `NC(c1cc(Cl)c(Cl)c(Cl)c1)C(F)(F)F` (stereo not drawn) [2,2,2-Trifluoro-1-(3,4,5-trichlorophenyl)ethanamine] reads 3.17; that for `Cc1cc(/C=C/C(=O)NC(c2cccc(C(F)(F)F)c2)C(F)(F)F)ccc1C(=O)O` (stereo not drawn) [2-Methyl-4-[(1E)-3-oxo-3-({2,2,2-trifluoro-1-[3-(trifluoromethyl)phenyl]ethyl}amino)prop-1-en-1-yl]benzoic acid], 3.14; that for `N/C(=N\O)c1ccc(/C=C/C(=O)NC(c2cccc(C(F)(F)F)c2)C(F)(F)F)cc1C(F)(F)F` (stereo not drawn) [(2E)-3-[4-(N′-Hydroxycarbamimidoyl)-3-(trifluoromethyl)phenyl]-N-{2,2,2-trifluoro-1-[3-(trifluoromethyl)phenyl]ethyl}acrylamide], 2.55.

These data come from patent publication US8889878B2, “Haloalky-substituted amides as insecticides and acaricides” (Bayer CropScience AG, priority 2009, dated 2014).
